Results: US6025356A, “Disubstituted trans-3,4,4a,5,6,10b-hexahydro-2H-naphth[1,2-b]-1,4-oxazines” (Adir et Compagnie, priority 1997, dated 2000)
Blank lines part the entries; values can stand above or below the molecule they belong to.

Tests used:
[1] = biological target: T1, human dopamine D3 receptor (Homo sapiens, UniProt P35462); assay: human D2 and D3 receptor binding study (D3)
T1 construct: expressed in transfected cells
Description: (§1) A. In vitro: human D2 and D3 receptor binding study
(§2) CHO (Chinese Hamster Ovary) cells are transfected in a stable manner with the gene encoding the human dopamine D2 or D3 receptor in accordance with methods known from the literature. The native cells are deficient in the enzyme DHFR (DiHydroFolate Reductase). […] The transfections are carried out using Lipofectin (Gibco). The CHO cells co-transfected with the human D2 receptor and the phleomycin resistance gene are selected for their resistance to the presence of that antibiotic in the culture medium. The cells transfected with the human D3 receptor are selected in the presence of methotrexate in a medium containing no hypoxanthine/thymidine. The compositions of the culture media used are: for CHO-D2 : DMEM (Dulbecco's Modified Eagle Medium) supplemented with 10% foetal calf serum and hypoxanthine/thymidine; and for CHO-D3 : DMEM supplemented with 10% dialysed foetal calf serum. The cells are harvested at confluence and the membranes are then prepared.
(§3) After a few minutes in the presence of 0.2% trypsin, the cells are recovered and centrifuged at 2,000 g for 5 minutes. […]
(§4) The ranges of concentration of each compound include at least seven points determined in triplicate, each experiment being repeated at least twice.
(§5) The recovered filters are then counted using a gamma counter. […]

[2] = "Rotations" induced by dopaminergic agonists in rats having a unilateral lesion of the Substantia nigra; assay type: in vivo, male Wistar rats; settings: Rattus norvegicus, sc; read-out: dose from which active in the rotation test
[3] = system: dopaminergic cells in the ventral tegmentum area of the rat; assay: Test recording the unitary extracellular electrical activity in the ventral tegmentum area of the rat; assay type: in vivo; settings: n = 4
Description: 1. Test recording the unitary extracellular electrical activity in the ventral tegmentum area of the rat
The administration of a dopaminergic agonist decreases the discharge frequency of neurons in a dose-dependent manner. That effect is reversed by haloperidol, a dopaminergic antagonist.
The rats are anaesthetised with chloral hydrate (400 mg/kg, i.p.) and placed in a stereotactic apparatus (Unimecanique, France) after catheterisation of the femoral vein. The level of anaesthesia is maintained by i.p. administration of chloral hydrate every hour; the rectal temperature is maintained at 37±1° C. by means of a thermostatically controlled heated cover. A tungsten microelectrode (10 M.OMEGA., 1 μm) is inserted using an electronic microinsertion device (Unimecanique, France) into the ventral tegmentum area (AP: -5.5/bregma; L: 0.7; H: 7.0-8.5/dura; Paxinos and Watson atlas, 1986). The potentials of the dopaminergic cells are recognised by their morphology (triphasic potentials+/-/+, of a duration greater than 3 msec), their discharge rhythm, whether regular or in bursts of decreasing amplitude, and their discharge frequency, which is from 2 to 8 Hz. A single cell per animal is used for the recording.
After a period≥5 min. (basal activity) and a first injection of carrier (distilled water to which a few drops of dilute lactic acid have been added; pH adjusted to 5 with 1N NaOH), the products of the invention are administered intravenously in cumulatively increasing doses at intervals of 2-3 min..
Acquisition of the data is effected by the software Spike2 (Cambridge Electronic Design, England). The discharge frequency is measured over one minute at the maximum variation between each injection and is expressed as a percentage variation in relation to the basal activity (average of the 5 minutes preceding the first treatment) defined as 100%. The effect of the products is evaluated statistically by a variance analysis over repeated measurements, followed by a Newman-Keuls test for comparing the effects of different doses with the effect of the carrier.

[4] = biological target: T2, human dopamine D2 receptor (Homo sapiens, UniProt P14416); assay: human D2 and D3 receptor binding study (D2)
T2 construct: expressed in transfected cells
Description: as §1, §2, §3, §4, §5

[5] = Forced swimming test; assay type: in vivo, rat
Excerpt: The forced swimming test (Porsolt R. et al, Eur. J. Pharmacol., 1978, 47, 379-91) is a behavioural test which comprises inducing a state of despair in the rat by placing the naive animal in an enclosure full of water, from which it cannot escape, for a period of fifteen minutes. For the first five to ten minutes the rat struggles vigorously, but finally adopts an immobile posture during the last part of the test. Placed in the same enclosure the next day, the animal remains immobile for the majority of the test (5 minutes' duration). The anti-depressants reduce the duration of immobility of the rat during the test.
The experiment is carried out over two days, with a 24-hour interval, on rats of an average weight of 170 g, housed the day before in individual cages, with free access to food and drink.
On the first day, each rat is placed for fifteen minutes in a glass cylinder (20 cm diameter ×40 cm high) filled to a height of 15 cm with water maintained at 25° C. On the second day, the animal is placed in a cylinder again for a period of five minutes; the total period of immobility (in seconds) of the rat is measured. The product or solvent is administered to the animal thirty minutes before the beginning of the test.

[6] = [125I]-iodosulpride, CHO membranes, 30 min at 30° C., pKi = -log Ki

T2 sequence (P14416 whole entry): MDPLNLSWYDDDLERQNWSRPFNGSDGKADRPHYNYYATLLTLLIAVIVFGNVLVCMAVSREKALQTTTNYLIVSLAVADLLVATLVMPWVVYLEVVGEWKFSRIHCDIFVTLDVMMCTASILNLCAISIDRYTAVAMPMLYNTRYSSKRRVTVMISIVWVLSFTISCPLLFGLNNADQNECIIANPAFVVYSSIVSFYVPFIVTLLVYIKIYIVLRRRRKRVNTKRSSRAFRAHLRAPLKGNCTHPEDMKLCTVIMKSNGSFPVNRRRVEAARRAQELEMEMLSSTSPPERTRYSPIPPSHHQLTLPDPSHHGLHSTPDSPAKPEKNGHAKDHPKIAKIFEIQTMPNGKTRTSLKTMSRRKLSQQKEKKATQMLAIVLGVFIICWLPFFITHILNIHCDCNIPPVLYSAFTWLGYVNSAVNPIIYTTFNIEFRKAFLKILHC
T1 sequence (P35462 whole entry): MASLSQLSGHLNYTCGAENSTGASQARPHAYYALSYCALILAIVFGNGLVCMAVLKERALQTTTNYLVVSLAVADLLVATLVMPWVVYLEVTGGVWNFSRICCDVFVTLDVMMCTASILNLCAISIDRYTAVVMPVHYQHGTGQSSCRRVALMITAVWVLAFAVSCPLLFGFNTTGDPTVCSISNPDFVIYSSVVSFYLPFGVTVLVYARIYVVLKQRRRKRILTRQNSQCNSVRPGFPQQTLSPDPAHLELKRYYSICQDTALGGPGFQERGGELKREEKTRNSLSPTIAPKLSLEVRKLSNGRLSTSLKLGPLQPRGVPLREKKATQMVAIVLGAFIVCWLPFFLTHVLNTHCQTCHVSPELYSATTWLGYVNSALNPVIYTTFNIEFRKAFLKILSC

Ki [1, 6]: 10 nM
Ki [4, 6]: 316 nM
Molecule: CCCN1CCO[C@@H]2c3cc(C(N)=O)ccc3CC[C@H]21 (single isomer, unassigned) [Example 3, (+)-Trans-3,4,4a,5,6,10b-hexahydro-9-carbamoyl-4-propyl-2H-naphtho[1,2-b]-1,4-oxazine]
minimal effective dose [2]: 0.04 mg/kg
discharge frequency, percentage in relation to basal activity (100%) ([3]; 0.5 μg/kg i.v., cumulative doses, mean ± standard error of the mean): 80.4 ± 5.54%
discharge frequency, percentage in relation to basal activity (100%) ([3]; 1 μg/kg i.v., cumulative doses, mean ± standard error of the mean, p ≤ 0.05): 56.6 ± 11.4%
discharge frequency, percentage in relation to basal activity (100%) ([3]; 2 μg/kg i.v., cumulative doses, mean ± standard error of the mean, p ≤ 0.05): 25.0 ± 8.68%
discharge frequency, percentage in relation to basal activity (100%) ([3]; 4 μg/kg i.v., cumulative doses, mean ± standard error of the mean, p ≤ 0.05): 1.56 ± 1.12%
discharge frequency, percentage in relation to basal activity (100%) ([3]; 8 μg/kg i.v., cumulative doses, p ≤ 0.05): 0.00%
ED50 ([5]; Rattus norvegicus, sc, read-out: ID50 (period of immobility)): 0.41 mg/kg
period of immobility (result in words) ([5]; s.c.): reduces the period of immobility of the animal in a dose-dependent manner

Molecule: O=C(CCCN1CCC(O)(c2ccc(Cl)cc2)CC1)c1ccc(F)cc1 [haloperidol, reference compound]
discharge frequency, percentage in relation to basal activity (100%) ([3]; haloperidol 16 μg/kg i.v., reversal after cumulative doses of Example 3, mean ± standard error of the mean): 110.5 ± 14.9%

Molecule: [^125 I]-iodosulpride [[125I]-iodosulpride, reference compound]
Kd ([1]; radioligand, read-out: Kd (dissociation constant) for the human D3 receptor): 1.31 nM
Kd ([4]; radioligand, read-out: Kd (dissociation constant) for the human D2 receptor): 0.5 nM
